Experimental data published in ChEMBL document CHEMBL1909046, “DrugMatrix in vitro pharmacology data”.

How the values were obtained:
[1] = molecular target: 5-hydroxytryptamine receptor 4 (Cavia porcellus, UniProt O70528); assay type: cell membranes, Dunkin-Hartley, Striatum, Membrane; note: in other assays of this panel Not Active means under 50% inhibition at 10 µM
[2] = molecular target: Sigma non-opioid intracellular receptor 1 (Homo sapiens, UniProt Q99720); experiment: DRUGMATRIX: Sigma1 radioligand binding (ligand: [3H] Haloperidol); assay type: cell membranes, Jurkat, Membrane; conditions: jurkat; Not Active = under 50% inhibition at 10 µM
[3] = DRUGMATRIX: Tumor Necrosis Factor (TNF), Non-Selective radioligand binding (ligand: [125I] TNF-alpha); assay type: cell membranes, Membrane; conditions: u-937; Not Active = under 50% inhibition at 10 µM
[4] = molecular target: T1, C-X-C chemokine receptor type 2 (Homo sapiens, UniProt P25025); assay type: cell membranes, Membrane; conditions: cho-k1; note: in other assays of this panel Not Active means under 50% inhibition at 10 µM
T1 sequence (P25025 whole entry): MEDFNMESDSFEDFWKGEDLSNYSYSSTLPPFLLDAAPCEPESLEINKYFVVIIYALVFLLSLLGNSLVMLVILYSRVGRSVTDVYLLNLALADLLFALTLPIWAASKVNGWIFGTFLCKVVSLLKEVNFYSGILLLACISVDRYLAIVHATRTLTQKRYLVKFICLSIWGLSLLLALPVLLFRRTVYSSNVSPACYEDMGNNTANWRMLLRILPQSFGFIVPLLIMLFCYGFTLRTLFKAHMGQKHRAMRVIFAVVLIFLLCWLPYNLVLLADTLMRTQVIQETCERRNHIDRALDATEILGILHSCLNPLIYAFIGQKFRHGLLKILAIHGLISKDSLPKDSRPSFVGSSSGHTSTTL

[5] = DRUGMATRIX: Glutamate, NMDA, Phencyclidine radioligand binding (ligand: [3H] TCP); assay type: cell membranes, Rattus norvegicus, Wistar, Cerebral cortex, Membrane; conditions: Not Active = under 50% inhibition at 10 µM
Leukotriene C4 synthase = molecular target: T2, Leukotriene C4 synthase (Cavia porcellus, UniProt A6XA80); experiment: biochemical; assay type: tissue-based, Lung;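 note: enzyme inhibition assay of leukotriene C4 synthase, using LTA4 as the substrate; in other assays of this panel Not Active means under 50% inhibition at 10 µM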
T2 sequence (A6XA80 whole entry): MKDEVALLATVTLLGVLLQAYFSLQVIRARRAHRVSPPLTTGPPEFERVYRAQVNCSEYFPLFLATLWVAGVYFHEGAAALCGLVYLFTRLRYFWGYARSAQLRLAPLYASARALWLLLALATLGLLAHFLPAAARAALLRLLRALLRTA

[6] = molecular target: T3, Muscarinic acetylcholine receptor M5 (Homo sapiens, UniProt P08912); assay type: cell membranes, CHO-K1, Membrane; conditions: cho-k1; note: in other assays of this panel Not Active means under 50% inhibition at 10 µM
T3 sequence (P08912 whole entry): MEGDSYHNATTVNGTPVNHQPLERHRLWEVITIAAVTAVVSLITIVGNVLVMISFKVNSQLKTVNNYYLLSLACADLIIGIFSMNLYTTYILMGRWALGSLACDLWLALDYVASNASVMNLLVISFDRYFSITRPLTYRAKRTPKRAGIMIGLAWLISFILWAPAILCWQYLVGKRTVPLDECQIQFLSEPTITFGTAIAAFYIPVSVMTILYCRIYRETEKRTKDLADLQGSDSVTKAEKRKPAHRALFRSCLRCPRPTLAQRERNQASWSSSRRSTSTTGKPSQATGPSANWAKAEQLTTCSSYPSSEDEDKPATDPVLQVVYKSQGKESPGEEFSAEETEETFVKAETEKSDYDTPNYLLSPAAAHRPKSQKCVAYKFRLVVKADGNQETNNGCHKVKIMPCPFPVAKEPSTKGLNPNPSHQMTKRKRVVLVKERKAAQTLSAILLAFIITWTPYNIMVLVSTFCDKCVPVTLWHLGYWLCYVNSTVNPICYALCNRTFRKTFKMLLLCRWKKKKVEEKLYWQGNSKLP

Nitric oxide synthase 1 = Nitric oxide synthase 1 (Rattus norvegicus, UniProt P29476); assay type: tissue-based, Cerebellum; note: in other assays of this panel Not Active means under 50% inhibition at 10 µM
[7] = molecular target: Platelet-activating factor receptor (Homo sapiens, UniProt P25105); experiment: biochemical; assay type: tissue-based; conditions: platelet; note: in other assays of this panel Not Active means under 50% inhibition at 10 µM
[8] = DRUGMATRIX: Platelet-Derived Growth Factor (PDGF) radioligand binding (ligand: [125I] PDGF); assay type: cell-based; conditions: nih3t3; Not Active = under 50% inhibition at 10 µM
[9] = molecular target: Protein kinase C alpha type (Homo sapiens, UniProt P17252); assay type: cell-based; conditions: sf9
[10] = molecular target: Epidermal growth factor receptor (Homo sapiens, UniProt P00533); experiment: DRUGMATRIX: Protein Tyrosine Kinase, EGF Receptor enzyme inhibition (substrate: Poly(Glu:Tyr)); assay type: cell-based, Insect cells; conditions: insect cells; Not Active = under 50% inhibition at 10 µM
Cytochrome P450 2C9 = Cytochrome P450 2C9 (Homo sapiens, UniProt P11712); conditions: bti-tn-5b1-4; note: in other assays of this panel Not Active means under 50% inhibition at 10 µM
Cytochrome P450 2D6 = Cytochrome P450 2D6 (Homo sapiens, UniProt P10635); conditions: bti-tn-5b1-4; note: in other assays of this panel Not Active means under 50% inhibition at 10 µM
Estrogen receptor beta = Estrogen receptor beta (Homo sapiens, UniProt Q92731); conditions: sf9; note: in other assays of this panel Not Active means under 50% inhibition at 10 µM
Chain of Estrogen receptor beta (Q92731 whole entry): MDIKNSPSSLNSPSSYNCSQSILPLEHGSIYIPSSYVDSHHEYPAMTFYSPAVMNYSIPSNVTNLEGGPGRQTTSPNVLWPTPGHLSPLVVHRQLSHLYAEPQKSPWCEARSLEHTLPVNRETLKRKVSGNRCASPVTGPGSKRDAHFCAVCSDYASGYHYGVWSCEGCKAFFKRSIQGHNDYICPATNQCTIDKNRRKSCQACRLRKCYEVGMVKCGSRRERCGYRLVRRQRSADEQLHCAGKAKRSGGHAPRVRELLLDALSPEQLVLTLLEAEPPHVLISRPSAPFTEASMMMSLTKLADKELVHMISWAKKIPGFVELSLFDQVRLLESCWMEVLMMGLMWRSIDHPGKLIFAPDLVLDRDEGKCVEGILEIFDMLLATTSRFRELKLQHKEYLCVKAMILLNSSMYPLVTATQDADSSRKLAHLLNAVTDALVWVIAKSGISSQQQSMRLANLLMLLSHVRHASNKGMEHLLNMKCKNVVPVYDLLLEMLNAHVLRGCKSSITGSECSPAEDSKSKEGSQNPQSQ

Chain of Cytochrome P450 2D6 (P10635 whole entry): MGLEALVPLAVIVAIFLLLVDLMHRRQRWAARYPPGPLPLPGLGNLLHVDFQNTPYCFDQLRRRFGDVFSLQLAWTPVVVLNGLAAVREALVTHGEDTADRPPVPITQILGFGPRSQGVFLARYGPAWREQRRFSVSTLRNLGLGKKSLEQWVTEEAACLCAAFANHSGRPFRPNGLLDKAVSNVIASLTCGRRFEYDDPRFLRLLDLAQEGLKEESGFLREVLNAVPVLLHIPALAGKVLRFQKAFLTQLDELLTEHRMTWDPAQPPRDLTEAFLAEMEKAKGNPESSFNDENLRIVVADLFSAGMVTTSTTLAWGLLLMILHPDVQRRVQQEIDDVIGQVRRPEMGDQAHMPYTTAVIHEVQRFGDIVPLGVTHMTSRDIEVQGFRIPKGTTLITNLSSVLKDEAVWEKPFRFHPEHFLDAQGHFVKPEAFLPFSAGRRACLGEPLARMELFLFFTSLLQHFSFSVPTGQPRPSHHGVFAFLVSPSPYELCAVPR
Chain of Epidermal growth factor receptor (P00533 whole entry): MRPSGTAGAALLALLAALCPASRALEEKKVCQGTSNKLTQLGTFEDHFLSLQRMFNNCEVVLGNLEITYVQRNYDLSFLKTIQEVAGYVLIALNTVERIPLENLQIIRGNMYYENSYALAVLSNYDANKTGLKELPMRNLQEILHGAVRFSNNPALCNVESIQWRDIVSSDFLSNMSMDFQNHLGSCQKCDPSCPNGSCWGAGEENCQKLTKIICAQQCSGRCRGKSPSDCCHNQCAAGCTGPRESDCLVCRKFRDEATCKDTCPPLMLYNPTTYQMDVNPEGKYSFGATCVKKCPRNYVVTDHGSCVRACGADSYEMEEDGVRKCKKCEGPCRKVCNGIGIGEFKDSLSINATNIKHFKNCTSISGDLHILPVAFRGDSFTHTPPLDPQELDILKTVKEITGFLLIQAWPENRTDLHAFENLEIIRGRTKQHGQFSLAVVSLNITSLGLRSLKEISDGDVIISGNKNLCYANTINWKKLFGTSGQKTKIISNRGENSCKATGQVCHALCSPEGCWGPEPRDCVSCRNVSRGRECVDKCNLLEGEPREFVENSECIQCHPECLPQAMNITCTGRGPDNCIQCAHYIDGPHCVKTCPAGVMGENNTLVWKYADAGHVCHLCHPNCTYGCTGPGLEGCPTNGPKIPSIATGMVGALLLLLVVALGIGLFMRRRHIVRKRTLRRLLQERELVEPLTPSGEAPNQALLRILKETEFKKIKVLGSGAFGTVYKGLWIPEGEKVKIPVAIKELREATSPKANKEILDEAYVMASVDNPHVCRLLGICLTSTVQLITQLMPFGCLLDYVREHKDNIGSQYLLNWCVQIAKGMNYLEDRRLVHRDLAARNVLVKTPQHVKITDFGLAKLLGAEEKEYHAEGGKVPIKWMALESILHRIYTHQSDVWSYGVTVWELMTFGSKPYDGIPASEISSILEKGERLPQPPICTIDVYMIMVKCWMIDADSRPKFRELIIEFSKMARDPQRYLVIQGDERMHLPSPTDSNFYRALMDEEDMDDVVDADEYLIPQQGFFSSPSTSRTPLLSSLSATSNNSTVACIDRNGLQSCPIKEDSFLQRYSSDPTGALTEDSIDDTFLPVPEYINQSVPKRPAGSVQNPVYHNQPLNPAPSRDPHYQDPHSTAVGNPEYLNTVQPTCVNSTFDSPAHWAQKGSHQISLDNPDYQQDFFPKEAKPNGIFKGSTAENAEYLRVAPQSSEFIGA
Chain of 5-hydroxytryptamine receptor 4 (O70528 whole entry): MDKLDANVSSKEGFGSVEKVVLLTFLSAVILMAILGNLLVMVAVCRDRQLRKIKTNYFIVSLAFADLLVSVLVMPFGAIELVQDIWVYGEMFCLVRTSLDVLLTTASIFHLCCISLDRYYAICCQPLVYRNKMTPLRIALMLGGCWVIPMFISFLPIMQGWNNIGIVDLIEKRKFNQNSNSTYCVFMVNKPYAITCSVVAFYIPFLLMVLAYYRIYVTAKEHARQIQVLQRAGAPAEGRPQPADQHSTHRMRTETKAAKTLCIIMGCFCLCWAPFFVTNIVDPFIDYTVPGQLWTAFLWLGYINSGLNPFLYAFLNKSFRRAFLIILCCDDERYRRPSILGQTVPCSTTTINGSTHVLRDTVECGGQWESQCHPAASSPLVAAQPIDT
Chain of Sigma non-opioid intracellular receptor 1 (Q99720 whole entry): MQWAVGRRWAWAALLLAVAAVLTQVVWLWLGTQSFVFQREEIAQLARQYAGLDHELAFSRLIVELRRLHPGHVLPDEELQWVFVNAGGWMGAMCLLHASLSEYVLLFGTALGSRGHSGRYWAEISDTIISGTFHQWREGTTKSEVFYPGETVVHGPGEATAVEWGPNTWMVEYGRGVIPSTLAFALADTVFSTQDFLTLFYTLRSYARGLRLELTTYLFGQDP
Chain of Nitric oxide synthase 1 (P29476 whole entry): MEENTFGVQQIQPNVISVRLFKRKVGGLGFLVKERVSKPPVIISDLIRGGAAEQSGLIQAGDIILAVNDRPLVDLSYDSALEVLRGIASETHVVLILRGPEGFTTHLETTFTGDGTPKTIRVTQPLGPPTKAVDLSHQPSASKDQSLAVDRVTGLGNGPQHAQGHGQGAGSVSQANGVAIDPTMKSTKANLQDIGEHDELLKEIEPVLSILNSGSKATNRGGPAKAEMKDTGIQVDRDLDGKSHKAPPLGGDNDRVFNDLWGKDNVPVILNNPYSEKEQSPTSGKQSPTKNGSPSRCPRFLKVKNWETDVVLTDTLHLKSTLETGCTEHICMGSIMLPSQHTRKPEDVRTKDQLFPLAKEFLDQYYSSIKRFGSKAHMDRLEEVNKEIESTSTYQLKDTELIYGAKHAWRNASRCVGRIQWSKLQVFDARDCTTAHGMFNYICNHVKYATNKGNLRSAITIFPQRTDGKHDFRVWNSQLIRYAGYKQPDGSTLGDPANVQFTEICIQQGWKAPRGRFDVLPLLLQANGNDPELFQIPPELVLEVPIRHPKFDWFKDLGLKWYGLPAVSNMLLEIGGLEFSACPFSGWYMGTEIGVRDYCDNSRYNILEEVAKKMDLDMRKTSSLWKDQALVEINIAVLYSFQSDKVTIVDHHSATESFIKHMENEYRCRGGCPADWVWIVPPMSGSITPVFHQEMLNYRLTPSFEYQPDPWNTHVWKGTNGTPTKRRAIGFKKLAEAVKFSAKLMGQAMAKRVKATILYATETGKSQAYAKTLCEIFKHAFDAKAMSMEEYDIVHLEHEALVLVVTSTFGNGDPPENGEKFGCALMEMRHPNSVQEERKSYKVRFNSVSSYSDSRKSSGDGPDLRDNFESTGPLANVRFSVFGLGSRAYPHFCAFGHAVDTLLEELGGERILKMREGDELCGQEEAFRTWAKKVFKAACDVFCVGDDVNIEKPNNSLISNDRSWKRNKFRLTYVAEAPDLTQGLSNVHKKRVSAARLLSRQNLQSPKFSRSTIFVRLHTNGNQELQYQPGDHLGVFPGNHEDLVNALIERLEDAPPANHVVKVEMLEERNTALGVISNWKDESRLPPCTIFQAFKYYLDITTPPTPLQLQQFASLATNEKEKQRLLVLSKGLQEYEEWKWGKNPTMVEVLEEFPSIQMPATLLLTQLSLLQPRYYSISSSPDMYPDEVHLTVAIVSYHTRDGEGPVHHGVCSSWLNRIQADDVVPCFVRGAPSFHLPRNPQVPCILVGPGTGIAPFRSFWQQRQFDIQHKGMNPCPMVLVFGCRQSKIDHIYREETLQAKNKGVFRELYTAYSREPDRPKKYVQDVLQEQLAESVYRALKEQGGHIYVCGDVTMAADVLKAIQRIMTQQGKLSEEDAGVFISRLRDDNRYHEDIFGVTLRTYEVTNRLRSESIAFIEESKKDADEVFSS
Chain of Platelet-activating factor receptor (P25105 whole entry): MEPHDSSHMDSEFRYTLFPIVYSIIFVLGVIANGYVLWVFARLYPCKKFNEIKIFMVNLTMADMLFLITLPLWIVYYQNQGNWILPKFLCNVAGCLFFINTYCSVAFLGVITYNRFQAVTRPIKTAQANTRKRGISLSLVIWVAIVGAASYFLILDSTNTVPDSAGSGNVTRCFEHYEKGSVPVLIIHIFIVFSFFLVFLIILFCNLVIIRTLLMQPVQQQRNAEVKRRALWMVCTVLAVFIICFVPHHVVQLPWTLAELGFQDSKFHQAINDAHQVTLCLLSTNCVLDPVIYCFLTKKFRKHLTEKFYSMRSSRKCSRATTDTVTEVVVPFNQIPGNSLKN

SMILES	IC50 [2]	IC50 [3]	Ki [3]	IC50 [4]	IC50 [5]	Ki [5]	IC50 (Leukotriene C4 synthase)	IC50 [6]	IC50 (Nitric oxide synthase 1)	IC50 [7]	IC50 [8]	Ki [8]	IC50 [9]	IC50 [10]	IC50 (Cytochrome P450 2C9)	Ki (Cytochrome P450 2C9)	IC50 (Cytochrome P450 2D6)	Ki (Cytochrome P450 2D6)	IC50 (Estrogen receptor beta)	IC50 [1]	other results
CN1C[C@H](C(=O)N[C@]2(C)O[C@@]3(O)[C@@H]4CCCN4C(=O)[C@H](Cc4ccccc4)N3C2=O)C=C2c3cccc4[nH]cc(c34)C[C@H]21 [ERGOTAMINE]	Not Active	Not Active	Not Active	Not Active	Not Active	Not Active	Not Active	Not Active	Not Active	Not Active	Not Active	Not Active	Not Active	Not Active	Not Active	Not Active	Not Active	Not Active	Not Active		IC50 ([1]; read-out: IC50): 1580 nM; Ki ([1]; read-out: Ki): 264 nM
CCc1cccc2c3c([nH]c12)C(CC)(CC(=O)O)OCC3 (stereo unspecified) [ETODOLAC]	Not Active	Not Active	Not Active	Not Active	Not Active	Not Active	Not Active	Not Active	Not Active	Not Active	Not Active	Not Active	Not Active	Not Active	Not Active	Not Active	Not Active	Not Active	Not Active	Not Active	
Cc1c(-c2ccccc2)oc2c(C(=O)OCCN3CCCCC3)cccc2c1=O [FLAVOXATE]	Not Active	Not Active	Not Active	Not Active	Not Active	Not Active	Not Active	Not Active	Not Active	Not Active	Not Active	Not Active	Not Active	Not Active	Not Active	Not Active	Not Active	Not Active	Not Active	Not Active	
Nc1nc(=O)[nH]cc1F [FLUCYTOSINE]	Not Active	Not Active	Not Active	Not Active	Not Active	Not Active	Not Active	Not Active	Not Active	Not Active	Not Active	Not Active	Not Active	Not Active	Not Active	Not Active	Not Active	Not Active	Not Active	Not Active	
O=C1OC2(c3ccc(O)cc3Oc3cc(O)ccc32)c2ccccc21 [FLUORESCEIN]	Not Active	Not Active	Not Active	Not Active	Not Active	Not Active	Not Active	Not Active	Not Active	Not Active	Not Active	Not Active	Not Active	Not Active	Not Active	Not Active	Not Active	Not Active	Not Active	Not Active	
CC(=O)[C@@]1(O)CC[C@H]2[C@@H]3C[C@H](C)C4=CC(=O)C=C[C@]4(C)[C@@]3(F)[C@@H](O)C[C@@]21C [FLUOROMETHOLONE]	Not Active	Not Active	Not Active	Not Active	Not Active	Not Active	Not Active	Not Active	Not Active	Not Active	Not Active	Not Active	Not Active	Not Active	Not Active	Not Active	Not Active	Not Active	Not Active	Not Active	
O=c1[nH]cc(F)c(=O)[nH]1 [FLUOROURACIL]	Not Active	Not Active	Not Active	Not Active	Not Active	Not Active	Not Active	Not Active	Not Active	Not Active	Not Active	Not Active	Not Active	Not Active	Not Active	Not Active	Not Active	Not Active	Not Active	Not Active	
CC[N+](CC)(CC)CCOc1cccc(OCC[N+](CC)(CC)CC)c1OCC[N+](CC)(CC)CC.[I-].[I-].[I-] [GALLAMINE TRIETHIODIDE]	Not Active	Not Active	Not Active	Not Active	Not Active	Not Active	Not Active	Not Active	Not Active	Not Active	Not Active	Not Active	Not Active	Not Active	Not Active	Not Active	Not Active	Not Active	Not Active	Not Active	
Nc1nc2c(ncn2COC(CO)CO)c(=O)[nH]1 [GANCICLOVIR]	Not Active	Not Active	Not Active	Not Active	Not Active	Not Active	Not Active	Not Active	Not Active	Not Active	Not Active	Not Active	Not Active	Not Active	Not Active	Not Active	Not Active	Not Active	Not Active	Not Active	
